Results from PMC11210122, “Synthesis, biological evaluation, and molecular docking of novel 1,3,4-substituted-thiadiazole derivatives as potential anticancer agent” (BMC Chemistry, 2024).
Read-outs that look alike come from different tables or passages of the source.

Experiments:
[1] = system: human breast carcinoma cell line (MCF-7); assay: MTT anti-proliferative assay, MCF-7; format: cell-based; conditions: MCF7, MCF-7, MTT, mean ± SD of three independent experiments, read-out: Growth inhibition, GI50
Experimental: (§1) Methods for in vitro anti-proliferative assay [Cell lines]: In the current investigation, hepatocellular carcinoma cell lines (HEPG-2), human lung carcinoma (A549) and human breast carcinoma cell line (MCF-7) and pseudo-normal human embryonic liver cellline (L02) were used for antiproliferative activity, the cell lines were obtained from NCL, Pune. The growth medium used is the DMEM (Dulbecco's modified Eagle's growth medium) having 10% FBS (fetal bovine serum), 10 µg/ml of insulin (Sigma) and 1% penicillin/streptomycin. The used reagents and chemicals were purchased from Sigma or Invitrogen. 100 µl of each compound was added to cells with density of 1.2 – 1.8 × 10,000 cells/well containing 100 µl growth medium in a 96-well plate for 24 h previous to performing the MTT assay.
(§2) MTT assay: MTT (3-[4,5-dimethylthiazole-2-yl]-2,5-diphenyltetrazolium bromide) was used to determine the anti-proliferative activity. Cells were incubated in a moist environment for 24 hours at 37℃. The cells were then treated with various concentrations of the studied substances (0.01, 0.1, 1.0, 10, 50, 100 µM). The media was removed, and the cells were treated for 2 hours with a 5% MTT ([…]) solution/well, allowing the dye to metabolize to colored-insoluble formazan crystals. The remaining solution was discarded and acidified isopropanol was then added for around 30 minutes to dissolve the formazan crystals, which were encased in aluminum foil at room temperature. The absorbance of each well was measured at 450 nm using an Elisa reader. The cell viability was expressed as a percentage of control, and the GI50 was calculated using Graph Pad Prism program (Graph Pad software Inc, CA).

[2] = system: human lung carcinoma cell line (A549); assay: MTT anti-proliferative assay, A549; format: cell-based; conditions: mean ± SD of three independent experiments, read-out: Growth inhibition, GI50
Experimental: as §1, §2

[3] = system: pseudo-normal human embryonic liver cell line (L02); assay: MTT assay, pseudo-normal L02 cells; format: cell-based; conditions: L02, 100 µM, mean ± SD of three independent experiments
Experimental: as §1, §2

[4] = system: hepatocellular carcinoma cell lines (HEPG-2); assay: MTT anti-proliferative assay, HepG-2; format: cell-based, human; conditions: mean ± SD of three independent experiments, read-out: Growth inhibition, GI50
Experimental: as §1, §2

[5] = system: breast carcinoma cell line (MCF-7); assay: Annexin V-FITC/PI assay (flow cytometry); format: cell-based, human; conditions: 24 h
Experimental: The early stages of apoptosis were monitored by Annexin V-FITC (apoptotic cell marker) and PI (necrotic cell marker) double staining. The staining method was used according to the Annexin FITC/PI staining kit (Invitrogen™, Thermo Fisher Scientific Inc.). Annexin V- FITC/PI assay was performed to inspect the extent of programmed cell death (Fig. 3, apoptosis) by the compounds 4c, 4j and 8f on breast carcinoma cell line (MCF-7). The cells were treated with increasing concentrations (5–10 μM) for 24 h and analyzed by flow cytometry.
Annexin V-FITC/PI Assay: The early stages of apoptosis were monitored by Annexin V-FITC (apoptotic cell marker) and PI (necrotic cell marker) double staining. The staining method was used according to the Annexin FITC/PI staining kit (Invitrogen™, Thermo Fisher Scientific Inc.). Briefly, cells were washed in PBS twice and resuspended in 500 μl of PBS plus Annexin V-FITC and PI. For each sample at least 1×10^4 cells should be analysed using an FACS cytometer.

[6] = Homo sapiens, HepG2, HepG-2, MTT

SMILES | GI50 [1] | GI50 ([2]; Homo sapiens, A549, A549, MTT) | inhibition at 100 µM [3] | GI50 [4, 6] | GI50 ([2]; A549, MTT) | GI50 ([4]; HepG-2, MTT) | Q3 live cells ([5]; MCF-7, 5 μM) | Q3 live cells ([5]; MCF-7, 10 μM) | Q2 late apoptotic cells ([5]; MCF-7, 5 μM) | Q2 late apoptotic cells ([5]; MCF-7, 10 μM) | Q1 necrotic cells ([5]; MCF-7, 5 μM) | Q1 necrotic cells ([5]; MCF-7, 10 μM)
O=C(CCl)Nc1nc(-c2ccccc2)cs1 [4a] | 23.8 ± 0.24 µM | 18.7 ± 0.41 µM | 21.6 ± 0.43% | 12.9 ± 0.25 µM | – | – | – | – | – | – | – | –
O=C(CCl)Nc1nc(-c2ccc(Br)cc2)cs1 [4b] | – | 3.86 µM | 17.8 ± 0.51% | 3.92 µM | 2.97 ± 0.19 µM | 3.62 ± 0.14 µM | – | – | – | – | – | –
O=C(CCl)Nc1nc(-c2ccc(Cl)cc2)cs1 [4c] | 2.63 ± 0.14 µM | 3.86 ± 0.22 µM | 18.4 ± 0.48% | 3.92 ± 0.17 µM | – | – | 62.43% | 42.19% | – | – | – | –
COc1ccc(-c2csc(NC(=O)CCl)n2)cc1 [4d] | 26.5 ± 0.32 µM | 15.4 ± 0.23 µM | 12.8 ± 0.22% | 8.37 ± 0.23 µM | – | – | – | – | – | – | – | –
Cc1ccc(-c2csc(NC(=O)CCl)n2)cc1 [4e] | 31.8 ± 0.46 µM | 13.7 ± 0.34 µM | 15.9 ± 0.24% | 7.28 ± 0.16 µM | – | – | – | – | – | – | – | –
O=C(CCl)Nc1nc(-c2ccc([N+](=O)[O-])cc2)cs1 [4f] | 29.4 ± 0.32 µM | 19.2 ± 0.32 µM | 28.16 ± 0.27% | 18.9 ± 0.29 µM | – | – | – | – | – | – | – | –
O=C(CCl)Nc1nc(-c2ccc(F)cc2)cs1 [4g] | 36.7 ± 0.41 µM | 17.5 ± 0.26 µM | 16.3 ± 0.21% | 22.7 ± 0.46 µM | – | – | – | – | – | – | – | –
O=C(CCl)Nc1nc(-c2cccc([N+](=O)[O-])c2)cs1 [4h] | 38.15 ± 0.27 µM | 28.6 ± 0.47 µM | 18.4 ± 0.34% | 25.81 ± 0.23 µM | – | – | – | – | – | – | – | –
O=C(CCl)Nc1nc(-c2cccc(Br)c2)cs1 [4i] | 33.74 ± 0.32 µM | 31.4 ± 0.36 µM | 17.6 ± 0.38% | 16 ± 0.43 µM | – | – | – | – | – | – | – | –
COc1cccc(-c2csc(NC(=O)CCl)n2)c1 [4j] | 1.82 ± 0.21 µM | 2.61 ± 0.12 µM | 17.3 ± 0.23% | 2.38 ± 0.24 µM | – | – | 42.81% | 32.80% | 34.84% | 40.33% | – | –
O=C(CCl)Nc1nc(-c2cc3ccccc3oc2=O)cs1 [4k] | 26.4 ± 0.28 µM | 25.3 ± 0.39 µM | 23 ± 0.35% | 14.3 ± 0.28 µM | – | – | – | – | – | – | – | –
CCOC(=O)c1sc(NC(=O)CCl)nc1C [4l] | 37.26 ± 0.37 µM | 32.9 ± 0.46 µM | 26 ± 0.47% | 29.8 ± 0.34 µM | – | – | – | – | – | – | – | –
Nc1nnc(SCC(=O)Nc2nc(-c3ccccc3)cs2)s1 [8a, 2-(5-amino-1,3,4-thiadiazol-2-ylthio)-N-(4-phenylthiazol-2-yl) acetamide] | 34.87 ± 0.31 µM | 36.2 ± 0.39 µM | 22.6 ± 0.42% | 26.8 ± 0.28 µM | – | – | – | – | – | – | – | –
Nc1nnc(SCC(=O)Nc2nc(-c3ccc(Br)cc3)cs2)s1 [8b, 2-(5-amino-1,3,4-thiadiazol-2-ylthio)-N-(4-(4-bromophenyl)thiazol-2-yl) acetamide] | 4.07 ± 0.19 µM | 18.4 ± 0.46 µM | 15.8 ± 0.28% | 5.86 ± 0.24 µM | – | – | – | – | – | – | – | –
Nc1nnc(SCC(=O)Nc2nc(-c3ccc(Cl)cc3)cs2)s1 [8c, 2-(5-amino-1,3,4-thiadiazol-2-ylthio)-N-(4-(4-chlorophenyl)thiazol-2-yl) acetamide] | 20.7 ± 0.36 µM | 7.86 ± 0.24 µM | 18.2 ± 0.22% | 4.12 ± 0.18 µM | – | – | – | – | – | – | – | –
COc1ccc(-c2csc(NC(=O)CSc3nnc(N)s3)n2)cc1 [8d, 2-(5-amino-1,3,4-thiadiazol-2-ylthio)-N-(4-(4-methoxyphenyl)thiazol-2-yl) acetamide] | 2.98 ± 0.15 µM | 2.85 ± 0.18 µM | 21.8 ± 0.38% | 2.53 ± 0.1 µM | – | – | – | – | – | – | – | –
Cc1ccc(-c2csc(NC(=O)CSc3nnc(N)s3)n2)cc1 [8e, 2-(5-amino-1,3,4-thiadiazol-2-ylthio)-N-(4-p-tolylthiazol-2-yl) acetamide] | 28 ± 0.34 µM | 29.8 ± 0.37 µM | 23.8 ± 0.42% | 18.3 ± 0.34 µM | – | – | – | – | – | – | – | –
Nc1nnc(SCC(=O)Nc2nc(-c3ccc([N+](=O)[O-])cc3)cs2)s1 [8f, 2-(5-amino-1,3,4-thiadiazol-2-ylthio)-N-(4-(4-nitrophenyl)thiazol-2-yl) acetamide] | 3.71 ± 0.26 µM | 4.64 ± 0.23 µM | 20.6 ± 0.37% | 3.46 ± 0.13 µM | – | – | 59.08% | 46.14% | 14.62% | 37.15% | 16.99% | 12.44%
COc1cccc2c1C(=O)c1c(O)c3c(c(O)c1C2=O)C[C@@](O)(C(=O)CO)C[C@@H]3O[C@H]1C[C@H](N)[C@H](O)[C@H](C)O1 [doxorubicin, reference compound] | 4.15 ± 0.18 µM | 3.26 ± 0.24 µM | 82.2 ± 1.26% | 3.87 ± 0.16 µM | – | – | – | – | – | – | – | –
